{"source": "paper PMC7803973", "about": "“Structural basis of malaria parasite phenylalanine tRNA-synthetase inhibition by bicyclic azetidines” (Nature Communications, 2021)", "format_in_all_cases": "biochemical", "key": {"PfcFRS [1]": {"biological_target": "T1, PfcFRS (Plasmodium falciparum, UniProt Q8I246)", "T1 sequence (Q8I246 1-575)": "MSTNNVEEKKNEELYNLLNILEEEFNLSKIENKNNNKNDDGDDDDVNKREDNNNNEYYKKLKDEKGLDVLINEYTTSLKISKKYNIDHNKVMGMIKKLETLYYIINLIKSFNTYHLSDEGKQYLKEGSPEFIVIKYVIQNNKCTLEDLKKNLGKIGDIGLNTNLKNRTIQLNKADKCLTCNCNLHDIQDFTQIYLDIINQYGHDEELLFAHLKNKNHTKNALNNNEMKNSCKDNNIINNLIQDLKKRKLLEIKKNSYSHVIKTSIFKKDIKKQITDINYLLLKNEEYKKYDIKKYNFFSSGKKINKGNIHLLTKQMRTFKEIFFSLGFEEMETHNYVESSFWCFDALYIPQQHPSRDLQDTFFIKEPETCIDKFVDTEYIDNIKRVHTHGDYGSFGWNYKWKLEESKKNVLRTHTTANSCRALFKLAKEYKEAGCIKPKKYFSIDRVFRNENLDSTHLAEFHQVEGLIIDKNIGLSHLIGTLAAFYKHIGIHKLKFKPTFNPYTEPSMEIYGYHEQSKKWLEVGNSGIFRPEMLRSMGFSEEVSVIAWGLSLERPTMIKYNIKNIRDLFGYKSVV", "T1 sequence (Q8IIW2 1-623 partner)": "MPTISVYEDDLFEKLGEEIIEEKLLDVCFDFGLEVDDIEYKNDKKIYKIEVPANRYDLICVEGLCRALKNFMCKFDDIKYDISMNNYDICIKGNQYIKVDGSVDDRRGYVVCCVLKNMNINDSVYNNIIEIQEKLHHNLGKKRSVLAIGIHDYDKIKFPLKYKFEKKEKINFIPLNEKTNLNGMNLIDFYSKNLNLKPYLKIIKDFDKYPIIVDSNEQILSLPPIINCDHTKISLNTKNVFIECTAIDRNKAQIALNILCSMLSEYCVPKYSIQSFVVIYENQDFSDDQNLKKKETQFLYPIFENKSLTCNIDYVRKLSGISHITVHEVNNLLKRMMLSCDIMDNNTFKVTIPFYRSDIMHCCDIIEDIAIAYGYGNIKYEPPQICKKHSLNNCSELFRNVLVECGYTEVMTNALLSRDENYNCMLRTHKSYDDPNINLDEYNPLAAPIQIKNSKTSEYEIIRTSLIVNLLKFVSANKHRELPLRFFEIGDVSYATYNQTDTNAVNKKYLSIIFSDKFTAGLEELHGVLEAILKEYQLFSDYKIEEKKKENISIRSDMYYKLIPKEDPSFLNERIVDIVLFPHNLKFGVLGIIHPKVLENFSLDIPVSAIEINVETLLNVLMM", "experiment": "Malachite green aminoacylation enzyme inhibition assay", "description": "(§1) These were done using malachite green assay as per earlier published reports[1],[6]. Briefly, the reaction was performed for 100 µM ATP, 50 µM L-phenylalanine and 100 nM recombinant PheRS enzymes (Pf, Pv, Hs, Pf mutant (L550V)) in a buffer containing 30 mM HEPES (pH 7.5), 150 mM, NaCl, 30 mM KCl, 50 mM, MgCl2, 1 mM DTT, and 2 U/ml E. coli inorganic pyrophosphatase (NEB) at 37 °C. Enzymatic reactions (50 μl total volume) were performed in clear, flat-bottomed, 96-well plates (Costar 96-well standard microplates). The reaction mixture was incubated for 2 h at 37 °C. The reaction was stopped by adding 12.5 μl of malachite green solution to the reaction mixture and levels of inorganic phosphate (Pi) were detected after incubation of 5 min at room temperature. Absorbance was the measured at 620 nm using a Spectramax M2 (Molecular Devices). Reactions without FRS enzyme were performed as background controls, values of which were subtracted from the reactions with enzyme. BRD1389 was added to our aminoacylation assay reaction buffer in varying concentrations ranging from 0.1 nM to 10,000 nM. The IC50 value for the data is shown for three replicates as the mean ± SD."}, "PfcFRS mutant (L550V)": {"biological_target": "PfcFRS mutant (L550V) (Plasmodium falciparum, UniProt Q8I246, L550V)", "experiment": "Malachite green aminoacylation enzyme inhibition assay", "description": "as §1"}, "HscFRS": {"biological_target": "HscFRS (Homo sapiens, UniProt Q9Y285)", "sequence (Q9NSD9 whole entry)": "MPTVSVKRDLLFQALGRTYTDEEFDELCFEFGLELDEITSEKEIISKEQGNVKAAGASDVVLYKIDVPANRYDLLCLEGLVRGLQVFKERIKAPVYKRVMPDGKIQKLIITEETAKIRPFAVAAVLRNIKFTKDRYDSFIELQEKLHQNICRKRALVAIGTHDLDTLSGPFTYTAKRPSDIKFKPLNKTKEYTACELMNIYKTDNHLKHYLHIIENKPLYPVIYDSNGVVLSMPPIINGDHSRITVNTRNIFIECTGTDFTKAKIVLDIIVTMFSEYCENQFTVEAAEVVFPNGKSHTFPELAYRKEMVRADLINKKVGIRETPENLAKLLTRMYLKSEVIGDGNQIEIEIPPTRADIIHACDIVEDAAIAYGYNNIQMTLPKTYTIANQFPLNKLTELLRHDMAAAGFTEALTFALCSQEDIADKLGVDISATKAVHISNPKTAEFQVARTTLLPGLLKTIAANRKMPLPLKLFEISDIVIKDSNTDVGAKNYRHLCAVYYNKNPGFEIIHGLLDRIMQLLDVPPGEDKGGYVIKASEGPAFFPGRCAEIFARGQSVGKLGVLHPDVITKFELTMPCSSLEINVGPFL", "sequence (Q9Y285 whole entry)": "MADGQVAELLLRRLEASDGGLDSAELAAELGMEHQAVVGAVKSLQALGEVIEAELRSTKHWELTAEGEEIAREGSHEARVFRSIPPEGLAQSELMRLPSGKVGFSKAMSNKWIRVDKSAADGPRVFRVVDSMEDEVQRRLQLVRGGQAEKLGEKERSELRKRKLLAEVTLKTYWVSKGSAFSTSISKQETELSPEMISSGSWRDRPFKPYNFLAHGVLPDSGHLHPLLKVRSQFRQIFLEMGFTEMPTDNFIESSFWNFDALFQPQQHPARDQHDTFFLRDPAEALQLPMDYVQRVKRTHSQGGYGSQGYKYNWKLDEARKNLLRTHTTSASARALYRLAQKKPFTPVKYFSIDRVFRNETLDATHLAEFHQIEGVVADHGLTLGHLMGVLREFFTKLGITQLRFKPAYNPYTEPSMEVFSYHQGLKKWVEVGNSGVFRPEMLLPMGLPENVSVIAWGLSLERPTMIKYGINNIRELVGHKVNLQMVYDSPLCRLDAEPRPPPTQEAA", "experiment": "Malachite green aminoacylation enzyme inhibition assay", "description": "as §1"}, "PfcFRS [2]": {"biological_target": "T1, PfcFRS", "experiment": "PfcFRS mode of inhibition study (malachite green)", "conditions": "for 1/v (0.5 × IC50 ): inhibitor 0.5 × IC50; for 1/V (1 × IC50 ) / 1/v (1 × IC50 ): inhibitor 1 × IC50", "description": "as §1\nTo establish the mode of inhibition of BRD1389, data sets (generated using the malachite Green assay platform as described in the above enzyme inhibition assays method section) were collected by varying both the inhibitor and substrate concentrations."}, "[3]": {"conditions": "2 h, read-out: % Enzyme Activity"}, "[4]": {"conditions": "ATP 15.6 uM, saturating L-Phe 1000 μM"}, "[5]": {"conditions": "ATP 31.25 uM, saturating L-Phe 1000 μM"}, "[6]": {"conditions": "ATP 62.5 uM, saturating L-Phe 1000 μM"}, "[7]": {"conditions": "ATP 125 uM, saturating L-Phe 1000 μM"}, "[8]": {"conditions": "ATP 250 uM, saturating L-Phe 1000 μM"}, "[9]": {"conditions": "ATP 500 uM, saturating L-Phe 1000 μM"}, "[10]": {"conditions": "L-Phe 0.015625 mM, saturating ATP 500 μM"}, "[11]": {"conditions": "L-Phe 0.031 mM, saturating ATP 500 μM"}, "[12]": {"conditions": "L-Phe 0.0625 mM, saturating ATP 500 μM"}, "[13]": {"conditions": "L-Phe 0.125 mM, saturating ATP 500 μM"}, "[14]": {"conditions": "L-Phe 0.25 mM, saturating ATP 500 μM"}, "[15]": {"conditions": "L-Phe 0.5 mM, saturating ATP 500 μM"}, "[16]": {"conditions": "L-Phe 1 mM, saturating ATP 500 μM"}}, "note": "“Also recorded” adds a separate entry of the source."}
{"smiles": "COC[C@@H]1[C@H](c2ccc(C#Cc3ccccc3)cc2)[C@@H]2CN(C(=O)Nc3ccc(OC4CC4)cc3)C[C@@H](O)[C@@H](O)CN12", "note": "[BRD1389]", "values": [{"measurement": "remaining activity at 1 pM", "setting": "PfcFRS [1]; [3]", "value": 100, "unit": "%"}, {"measurement": "remaining activity at 0.0001 µM", "setting": "PfcFRS [1]; 2 h, PfcFRS, BRD1389 0.0001 uM", "value": 98.4, "unit": "%"}, {"measurement": "remaining activity at 0.001 µM", "setting": "PfcFRS [1]; 2 h, PfcFRS, BRD1389 0.001 uM", "value": 85.2, "unit": "%"}, {"measurement": "remaining activity at 0.01 µM", "setting": "PfcFRS [1]; 2 h, PfcFRS, BRD1389 0.01 uM", "value": 46.7, "unit": "%"}, {"measurement": "remaining activity at 0.1 µM", "setting": "PfcFRS [1]; 2 h, PfcFRS, BRD1389 0.1 uM", "value": 9.72, "unit": "%"}, {"measurement": "remaining activity at 1 µM", "setting": "PfcFRS [1]; 2 h, PfcFRS, BRD1389 1 uM", "value": 4.61, "unit": "%"}, {"measurement": "remaining activity at 10 µM", "setting": "PfcFRS [1]; 2 h, PfcFRS, BRD1389 10 uM", "value": 1.17, "unit": "%"}, {"measurement": "remaining activity at 100 µM", "setting": "PfcFRS [1]; 2 h, PfcFRS, BRD1389 100 uM", "value": 0, "unit": "%"}, {"measurement": "IC50", "setting": "PfcFRS [1]; Pf cFRS aminoacylation activity", "value": "12 ± 0.8", "unit": "nM"}, {"measurement": "IC50", "setting": "PfcFRS mutant (L550V)", "value": 1000, "unit": "nM"}, {"measurement": "remaining activity at 1 pM", "setting": "PfcFRS mutant (L550V); [3]", "value": 100, "unit": "%"}, {"measurement": "remaining activity at 0.0001 µM", "setting": "PfcFRS mutant (L550V); [3]", "value": 99.5, "unit": "%"}, {"measurement": "remaining activity at 0.001 µM", "setting": "PfcFRS mutant (L550V); [3]", "value": 98, "unit": "%"}, {"measurement": "remaining activity at 0.01 µM", "setting": "PfcFRS mutant (L550V); [3]", "value": 95.2, "unit": "%"}, {"measurement": "remaining activity at 0.1 µM", "setting": "PfcFRS mutant (L550V); [3]", "value": 75.4, "unit": "%"}, {"measurement": "remaining activity at 1 µM", "setting": "PfcFRS mutant (L550V); [3]", "value": 55.3, "unit": "%"}, {"measurement": "remaining activity at 10 µM", "setting": "PfcFRS mutant (L550V); [3]", "value": 18.8, "unit": "%"}, {"measurement": "remaining activity at 100 µM", "setting": "PfcFRS mutant (L550V); [3]", "value": 0, "unit": "%"}, {"measurement": "IC50", "setting": "HscFRS; Hs cFRS aminoacylation activity", "value": 12, "unit": "µM"}, {"measurement": "remaining activity at 0.0001 µM", "setting": "HscFRS; HscFRS, BRD1389 0.0001 uM", "value": 99.6, "unit": "%"}, {"measurement": "remaining activity at 0.001 µM", "setting": "HscFRS; HscFRS, BRD1389 0.001 uM", "value": 100, "unit": "%"}, {"measurement": "remaining activity at 0.01 µM", "setting": "HscFRS; HscFRS, BRD1389 0.01 uM", "value": 99.7, "unit": "%"}, {"measurement": "remaining activity at 0.1 µM", "setting": "HscFRS; HscFRS, BRD1389 0.1 uM", "value": 90.2, "unit": "%"}, {"measurement": "remaining activity at 1 µM", "setting": "HscFRS; HscFRS, BRD1389 1 uM", "value": 85, "unit": "%"}, {"measurement": "remaining activity at 10 µM", "setting": "HscFRS; HscFRS, BRD1389 10 uM", "value": 49.5, "unit": "%"}, {"measurement": "remaining activity at 100 µM", "setting": "HscFRS; HscFRS, BRD1389 100 uM", "value": 20, "unit": "%"}, {"measurement": "Ki", "setting": "PfcFRS [2]; ATP varied, L-Phe saturating, non-competitive inhibition model", "value": "10 ± 5", "unit": "nM"}, {"measurement": "Ki", "setting": "PfcFRS [2]; L-Phe varied, ATP constant, global competitive inhibition model", "value": "6 ± 2", "unit": "nM"}, {"measurement": "Mode of inhibition with respect to ATP", "setting": "PfcFRS [2]; PfcFRS, ATP varied at saturating L-Phe", "value": "non-competitive inhibition; also recorded: likely a non-competitive inhibitor"}, {"measurement": "Mode of inhibition with respect to L-Phe", "setting": "PfcFRS [2]; PfcFRS, L-Phe varied at saturating ATP", "value": "competitive inhibition; also recorded: competitive inhibitor"}, {"measurement": "1/v (0.5 × IC50 )", "setting": "PfcFRS [2]; [4]", "value": 50.7634}, {"measurement": "1/v (0.5 × IC50 )", "setting": "PfcFRS [2]; [5]", "value": 35.2611}, {"measurement": "1/v (0.5 × IC50 )", "setting": "PfcFRS [2]; [6]", "value": 25.2226}, {"measurement": "1/v (0.5 × IC50 )", "setting": "PfcFRS [2]; [7]", "value": 18.8398}, {"measurement": "1/v (0.5 × IC50 )", "setting": "PfcFRS [2]; [8]", "value": 16}, {"measurement": "1/v (0.5 × IC50 )", "setting": "PfcFRS [2]; [9]", "value": 13.77}, {"measurement": "1/v (0.5 × IC50 )", "setting": "PfcFRS [2]; [10]", "value": 19.05}, {"measurement": "1/v (0.5 × IC50 )", "setting": "PfcFRS [2]; [11]", "value": 12.5}, {"measurement": "1/v (0.5 × IC50 )", "setting": "PfcFRS [2]; [12]", "value": 10}, {"measurement": "1/v (0.5 × IC50 )", "setting": "PfcFRS [2]; [13]", "value": 8.3}, {"measurement": "1/v (0.5 × IC50 )", "setting": "PfcFRS [2]; [14]", "value": 7.2}, {"measurement": "1/v (0.5 × IC50 )", "setting": "PfcFRS [2]; [15]", "value": 6.5}, {"measurement": "1/v (0.5 × IC50 )", "setting": "PfcFRS [2]; [16]", "value": 6.2}, {"measurement": "1/V (1 × IC50 )", "setting": "PfcFRS [2]; [4]", "value": 66.6667}, {"measurement": "1/V (1 × IC50 )", "setting": "PfcFRS [2]; [5]", "value": 44.4444}, {"measurement": "1/V (1 × IC50 )", "setting": "PfcFRS [2]; [6]", "value": 40.1698}, {"measurement": "1/V (1 × IC50 )", "setting": "PfcFRS [2]; [7]", "value": 25.8}, {"measurement": "1/V (1 × IC50 )", "setting": "PfcFRS [2]; [8]", "value": 20}, {"measurement": "1/V (1 × IC50 )", "setting": "PfcFRS [2]; [9]", "value": 13.7741}, {"measurement": "1/v (1 × IC50 )", "setting": "PfcFRS [2]; [10]", "value": 30}, {"measurement": "1/v (1 × IC50 )", "setting": "PfcFRS [2]; [11]", "value": 18.03}, {"measurement": "1/v (1 × IC50 )", "setting": "PfcFRS [2]; [12]", "value": 12}, {"measurement": "1/v (1 × IC50 )", "setting": "PfcFRS [2]; [13]", "value": 9}, {"measurement": "1/v (1 × IC50 )", "setting": "PfcFRS [2]; [14]", "value": 8}, {"measurement": "1/v (1 × IC50 )", "setting": "PfcFRS [2]; [15]", "value": 7.2}, {"measurement": "1/v (1 × IC50 )", "setting": "PfcFRS [2]; [16]", "value": 7}]}
